The nature of data set [1]: Solubility of Ecadotril in water. In kind it is physicochemical. Particulars: 37 °C. From the text: Ecadotril (N-[(S)-α-(mercaptomethyl)hydrocinnamoyl]glycine, benzyl ester, acetate(ester); N-[(S)-α-(acetylthiomethyl)hydrocinnamoyl]glycine, benzyl ester) is an enkephalinase inhibitor used as a hypotensive drug, a cardiac insufficiency therapeutic drug, or the like. […] Therefore, when formulated into tablets, capsules, or the like by conventional methods, sufficient absorbability of Ecadotril in the digestive tract cannot be obtained because of low dispersibility of drug particles. Thus, a preparation of Ecadotril with improved bioavailability, in particular a tablet with high content, has been demanded. Generally, it is known that in order to obtain sufficient absorbability of such water-insoluble drugs, the solubility (dissolving rate) of the drugs is enhanced. For example, Japanese Laid-Open Patent Publication No. 7-76516 discloses a method for spray drying dispersions in which finely ground drug particles and a hydrophilic excipient are dispersed in water. However, according to this method, when powder to be obtained is formulated into tablets, there is a possibility that drug particles come into close contact with each other thereby decreasing the disintegration property and absorbability of the preparation. Furthermore, in the case where water-insoluble drugs such as Ecadotril with a low melting point and high plasticity are used, particles are likely to aggregate. […]

Data set [2] can be described thus: Dissolution test (in vitro test), paddle method. In kind it is physicochemical. Particulars: 100 mg of the preparation, distilled water 900 ml, 37° C. Here is the method:
(2) Dissolution test (in vitro test) Apparatus: Dissolution test machine in accordance with The 12th revised Japanese Pharmacopoeia using the paddle method a stirring speed 100 rpm. Test solution: Distilled water 900 ml, 37° C. Collection of solution: Eluates are collected 5, 10, 15, 30, 45, and 60 minutes after the commencement of dissolution, and the respective eluates are filtrated through […] 13; Kento Chemical Co., Ltd.) aqueous filter (0.22 μm). Then, about 1.5 ml each of the filtrates is collected. One milliliter of this filtrate or standard solution is mixed with 1 ml of internal standard, and 25 μl of the mixed solution is injected to HPLC.

The structures appear in SMILES notation. Read-outs that look alike come from different tables or passages of the source.

One may read the solubility as the concentration that dissolves in the medium under given conditions. `CC(=O)SC[C@@H](Cc1ccccc1)C(=O)NCC(=O)OCc1ccccc1` [Ecadotril, N-[(S)-α-(mercaptomethyl)hydrocinnamoyl]glycine, benzyl ester, acetate(ester)]: the solubility in data set [1] (read-out: solubility in water) was ~33 µg/mL; in data set [1] (read-out: solubility of Ecadotril in water) it was 33 µg/mL. For the same compound, the “maximum dissolution amount in the present test” value in data set [2] was “about 30%”.
